Holding throughout (format): biochemical
The target of experiment [1] is T1, CYP2B1 (Rattus norvegicus, UniProt P00176).
T1 construct: native enzyme in rat liver microsomes; benzyloxyresorufin O-dealkylation (BROD) read-out
T1 sequence (P00176 1-491): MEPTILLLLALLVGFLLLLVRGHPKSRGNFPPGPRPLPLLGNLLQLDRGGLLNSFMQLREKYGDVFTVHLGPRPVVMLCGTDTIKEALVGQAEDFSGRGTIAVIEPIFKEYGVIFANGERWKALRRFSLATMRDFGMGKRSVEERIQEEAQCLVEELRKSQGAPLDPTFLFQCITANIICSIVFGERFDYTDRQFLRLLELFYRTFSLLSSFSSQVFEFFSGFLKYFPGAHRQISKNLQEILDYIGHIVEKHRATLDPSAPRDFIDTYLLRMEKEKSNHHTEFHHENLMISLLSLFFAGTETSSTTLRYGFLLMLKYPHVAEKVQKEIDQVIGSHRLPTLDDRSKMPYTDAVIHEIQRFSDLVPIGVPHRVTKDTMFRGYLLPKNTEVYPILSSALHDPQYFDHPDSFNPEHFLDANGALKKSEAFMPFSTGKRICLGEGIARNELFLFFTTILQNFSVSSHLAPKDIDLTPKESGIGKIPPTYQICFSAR
The experiment is described as follows: Michaelis-Menten fit in rat liver microsomes, HPLC-fluorescence of resorufin. The conditions noted are these: NADPH regeneration system, 0.05 M Tris-HCl pH 7.4, 15 min, 5 μM α-BNF added to block CYP1A1/2.

For experiment [2], the target named is T2, CYP2D2 (Rattus norvegicus, UniProt P10634).
T2 construct: gene Cyp2d26; native enzyme in rat liver microsomes; dextromethorphan to dextrorphan read-out
T2 sequence (P10634 1-500): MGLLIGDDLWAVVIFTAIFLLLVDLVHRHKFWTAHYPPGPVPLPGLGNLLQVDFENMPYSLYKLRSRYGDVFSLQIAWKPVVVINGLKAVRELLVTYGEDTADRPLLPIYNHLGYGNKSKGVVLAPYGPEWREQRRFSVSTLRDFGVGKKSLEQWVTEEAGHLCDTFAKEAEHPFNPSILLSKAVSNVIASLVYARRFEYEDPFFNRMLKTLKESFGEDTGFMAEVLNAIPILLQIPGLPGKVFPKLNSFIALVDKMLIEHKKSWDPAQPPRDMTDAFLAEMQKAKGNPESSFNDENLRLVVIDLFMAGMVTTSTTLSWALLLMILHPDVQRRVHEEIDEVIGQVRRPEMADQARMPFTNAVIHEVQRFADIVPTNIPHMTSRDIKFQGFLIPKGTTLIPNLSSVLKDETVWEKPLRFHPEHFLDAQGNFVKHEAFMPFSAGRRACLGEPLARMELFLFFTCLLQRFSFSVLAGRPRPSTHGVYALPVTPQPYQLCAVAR
The experiment is described as follows: Michaelis-Menten fit in rat liver microsomes, HPLC-fluorescence of dextrorphan. Particulars: NADPH regeneration system, 0.05 M Tris-HCl pH 7.4, 30 min.

Experiment [3] concerns T3, CYP3A1/2.
T3 construct: native enzymes in rat liver microsomes; testosterone 6beta-hydroxylation read-out
Description: probe substrate conversion in rat liver microsomes, HPLC-MS/MS. Particulars: testosterone at about Km, NADPH regeneration system, 0.05 M Tris-HCl pH 7.4, 30 min; read-out: IC 50 / Positive control. An excerpt: probe substrate conversion in rat liver microsomes, HPLC-MS/MS on CYP3A1/2

In experiment [4] the target is T1, CYP2B1. Description: probe substrate conversion in rat liver microsomes, HPLC-fluorescence. Particulars: benzyloxyresorufin at about Km, 5 μM α-BNF added to block CYP1A1/2, NADPH regeneration system, 0.05 M Tris-HCl pH 7.4, 15 min; read-out: IC 50 / Positive control. The text has this: probe substrate conversion in rat liver microsomes, HPLC-fluorescence on CYP2B1

Experiment [5] relates to T4, CYP1A1/2.
T4 construct: native enzymes in rat liver microsomes; ethoxyresorufin O-deethylation (EROD) read-out
The experiment is described as above. The conditions noted are these: ethoxyresorufin at about Km, NADPH regeneration system, 0.05 M Tris-HCl pH 7.4, 15 min; read-out: IC 50 / Positive control. An excerpt:
probe substrate conversion in rat liver microsomes, HPLC-fluorescence on CYP1A1/2

The values that follow come from article PMC12415777, “Dose-dependent modulation of hepatic cytochrome P450 enzymes by tenvermectin: implications for medication safety and combination therapy” (Frontiers in Veterinary Science, 2025).

As for `O=c1ccc2nc3ccc(OCc4ccccc4)cc3oc-2c1` [BR], the Km result in experiment [1] is “(B) benzyloxyresorufin (BR) (CYP2B1)”.
In the case of `COc1ccc2c(c1)[C@]13CCCC[C@@H]1[C@H](C2)N(C)CC3` [DOM], the Km entry in experiment [2] is on record as “(D) dextromethorphan (DOM) (CYP2D2)”.
On to `CC(=O)N1CCN(c2ccc(OCC3COC(Cn4ccnc4)(c4ccc(Cl)cc4Cl)O3)cc2)CC1` (centres unmarked) [KCZ], for which the IC50 in experiment [3] was determined as 470 nM.
As for `CC(C)(C(=O)c1cccnc1)c1cccnc1` [MTY], the IC50 in experiment [4] turned out to be 4310 nM.
Consider `O=c1cc(-c2ccccc2)oc2c1ccc1ccccc12` [α-BNF], for which the IC50 in experiment [5] worked out at 1820 nM.
